Results: US20250215004A1, “AZOLO COMPOUNDS FOR TREATMENT OF FIBROTIC DISEASES” (GEORG-AUGUST-UNIVERSITÄT GÖTTINGEN STIFTUNG ÖFFENTLICHEN …, priority 2022, published 2025)
≈ marks a conversion by molar mass, not a printed value.

Legend:
Format in all cases: cell-based
TK173 cells [1] = assay: Collagen I Western blot in TGFβ1-treated TK173 fibroblasts; conditions: Homo sapiens, Fibroblast, 10 ng/ml TGFβ1 for 5 days, then compound 48 hours, Collagen I immunoblot
Method: (§1) Compound reconstitution. Prior to treatment, each compound was used from a stock solution of a concentration of 10 mg/ml in DMSO. Final concentration of DMSO in cell cultures was kept below 0.1%.
(§2) Cell culture and treatment. The human renal fibroblast cell line TK173 was derived from a normal human kidney (laboratory stock; (G. A. Müller et al., Exp. Nephrol. 1995, 3, 127). Cell line stabilization for research purposes was approved by the Ethics Committee of the Georg-August-University. TK173 cells were cultured in Dulbecco's modified Eagle's medium (DMEM, Gibco, USA) supplemented with 10% fetal bovine serum (FBS, Gibco, Germany) and 1% penicillin-streptomycin (PS, Gibco, USA) at 37° C. in a humidified atmosphere with 5% CO2. Cell line was routinely tested for mycoplasma contamination. To investigate the effect of compounds after profibrotic agent treatment, 3×10^4 TK173 cells were seeded in one well of a 6-well culture plate in normal medium. After 24 hours, the culture medium was removed, and the cells were incubated for a further 24 hours in FBS free culture medium (starvation medium). Then, 10 ng/ml TGFβ1 (R&D Systems, USA) was added to the starvation medium, and the culture medium was changed with fresh TGFβ1 in every alternate day. After 5 days of TGFβ1 treatment, cell culture medium was replaced by starvation medium with compounds at different concentration for following 48 hours of incubation.
Protein Extraction. Total proteins were extracted from the cultured cells by NP40 Cell Lysis Buffer (Invitrogen, USA) containing phosphatase (Sigma-Aldrich, USA) and protease inhibitor (Roche, Switzerland) followed by sonication and centrifugation at 12,000×g for 20 minutes at 4° C. to clear the lysates. The supernatant was collected and measured using Pierce BCA Protein Assay Kit (ThermoFisher Scientific) by PHOmo Microplate Reader (Autobio, China). The samples were stored at −80° C. prior to use.
Immunoblotting. Western blot analysis, 10 μg of extracted proteins were diluted in NuPAGE LDS Samples Buffer (Novex Life technologies, USA) containing 5% 2-Mercaptoethanol (Sigma-Aldrich, Germany), and following denatured for 5 minutes at 95° C. The proteins were resolved by 4-12% NuPAGE SDS-PAGE (Novex Life technologies, USA). Blots were often stripped with Thermo Scientific Restore PLUS Western Blot Stripping Buffer (Thermo Fisher Scientific, Germany) for reprobing. The following antibodies were used for immunoblotting: Collagen I (1:1000; ab233080, Abcam, USA), alpha smooth muscle Actin (1:1000; ab124964, Abcam, USA), GAPDH (1:8000; sc-32233, Santa Cruz, USA). Proteins were detected by LumiGLO chemiluminescent system (Cell Signaling Technology, USA) with appropriate secondary antibodies: anti-mouse HRP (1:2500; Dako, Denmark) and anti-rabbit HRP (1:2500; 7074, Cell Signaling Technology, USA) using ChemiDoc MP Imaging System (Bio-Rad, USA).

TK173 cells [2] = assay: ELISA to detect secreted type I collagen (Pro-Collagen I alpha 1) in conditioned media of TGFβ1-treated TK173 fibroblasts; conditions: Homo sapiens, Fibroblast, 10 ng/ml TGFβ1 for 5 days, then compound 48 hours, Pro-Collagen I alpha 1 ELISA of conditioned media, read-out: IC50, concentration where the TGFβ-stimulated collagen secretion is attenuated by 50%
Method: as §1, §2
Conditioned media containing the secretome of TK173 fibroblast were harvested after 48 hours of compound treatments. Secretion of pro-Collagen 1 was assessed with Human Pro-Collagen I alpha 1 DuoSet ELISA (R&D Systems, USA). To prepare the ELISA plate, Human Pro-Collagen I α1 Capture Antibody was diluted in ELISA Plate-coating Buffer at 4 μg/ml working concentration. 100 μl of diluted Capture Antibody was added to the 96-well microplates and incubated overnight at room temperature. After three times washing with Wash Buffer, microplates were blocked by adding 300 μl of Reagent Diluent for 1 hour at room temperature. To proceed the ELISA, Human Pro-Collagen I α1 Standards were diluted in Reagent Diluent (range between 31.3 pg/ml-2000 pg/ml) and 100 μl of standards or conditioned mediums were add into designated wells. Microplates were incubated at room temperature for 2 hours. Human Pro-Collagen I α1 Detection Antibody was prepared in Reagent Diluent at 100 ng/ml working concentration and 100 μl of diluted Detection Antibody was applied for 2 hours at room temperature after extensive washing. Then, working solution of Streptavidin-HRP with Reagent Diluent was prepared by diluting 1:40 and added into each well. After 20 minutes at room temperature incubation, microplates were washed and applied with 100 μl of Substrate Solution for 20 minutes followed by Stop Solution after washing. Finally, signals were measured at 450 nm absorbance by PHOmo Microplate Reader (Autobio, China). The amount of pro-collagen 1 antibody fusion was quantified by extrapolating the signal into a linear range of a pro-collagen 1 standard curve. Screening compounds were typically tested in at concentrations between 5 and 200 μg/ml. The IC50 values observed by the dose response curves for each compound (n=4-6, two independent experiments) were obtained by nonlinear regression analysis using Prism 9 software (GraphPad, La Jolla, USA) and represent the concentration where the TGFβ-stimulated collagen secretion is attenuated by 50%.

TK173 cells [3] = assay: Collagen I mRNA PCR assay (qPCR, normalized to GAPDH) in TGFβ1-treated TK173 fibroblasts; conditions: Homo sapiens, Fibroblast, 10 ng/ml TGFβ1 for 5 days, then compound 48 hours
Method: as §1, §2
RNA isolation. Total RNA was extracted by the TRIzol reagent (Life technologies, USA) and purified by PureLink RNA Mini Kit (Ambion, USA) according to instructions available from the manufacturer with minor modifications. The samples were stored at −80° C. prior to use. RNA concentrations were measured by NanoDrop Spectrophotometer (ThermoFisher Scientific, USA), and were equilibrated to 100 ng for complementary DNA (cDNA) synthesis.
Quantitative real-time PCR analysis (qPCR). For SYBR Green-based qPCR analysis, cDNA preparation was performed by using DNAse I (Sigma-Aldrich, USA) digestion to remove residual genomic DNA and SuperScript II Reverse Transcriptase kit (Invitrogen, USA) to synthesize cDNA following the manufacturer's detailed instructions. All qPCR reactions were performed using the StepOne Plus Real-Time System (Applied Biosystems, USA) and amplifications were done using the SYBR Green PCR Master Mix (Applied Biosystems, USA). The thermal cycling conditions were initiated to 95° C. for 20 seconds, 40 amplification cycles at 95° C. for 3 seconds and 60° C. for 30 seconds, with one cycle of dissociation at 95° C. for 15 seconds, 60° C. for 60 seconds, and 95° C. for 15 seconds. Three replicates per sample were run in duplicate. The experimental cycle threshold (Ct) values were normalized to those obtained for GAPDH, and the relative gene expression level was determined using the 2_ddCT methods.

Row | SMILES | IC50 (TK173 cells [1]) | IC50 (TK173 cells [2]) | IC50 (TK173 cells [3])
1 | c1ccc2c(c1)cnn1nnnc21 [Compound 1, Tetrazolo[5,1-a]phthalazine] | < 40 µg/mL | 157 µg/mL (≈ 917 µM) | < 80 µg/mL
2 | Cc1nnc2c3ccccc3cnn12 [Compound 3, 3-Methyl-1,2,4-triazolo[3,4-a]phthalazine] | < 5 µg/mL | 96 µg/mL (≈ 521 µM) | < 20 µg/mL
